Assays:
Format in all cases: biochemical
[1] = target: T1, OleD P67T (Streptomyces antibioticus, UniProt Q53685, P55A/P67T/R82V/R83E/T84P); assay: Specific activity with novobiocic acid or 4-Me-umb as acceptor and UDP-Glc; settings: UDP-Glc donor
T1 construct: made in house; host or cells: E. coli (site-directed mutant of pET28/OleD)
Experimental: (§1) Determination of specific activity with 1 or 4 as acceptor. Enzyme reactions were carried out in a total volume of 100 μl/50 mM Tris-HCl (pH8.0) containing 5 mM MgCl2, 200 μM (FIG. 9: 1) or (FIG. 9: 4), 5 mM (FIG. 12: 5), and typically 10-50 μg pure enzyme. At a suitable time interval during which rate of product formation was linear with time (typically 2-20 min), reactions were quenched with 100 μl MeOH, and the samples centrifuged at 10,000 g for 10 min. Supernatants were analyzed by analytical reverse-phase HPLC with a Gemini 5μ C18 column (Phenomenex) using a gradient of 10-90% CH3CN in 0.1% trifluoroacetic acid (TFA)/H2O in 20 min, with detection at 254 nm. […] The identity of (FIG. 9: 7) was confirmed by LC-MS and NMR while the […] of glucoside (FIG. 9: 6) was confirmed by co-elution with a commercial standard and LC-MS analysis. HPLC peak areas were integrated, and the product concentrations calculated as a percent of the total peak area. Specific activity was expressed as nmols product formed/min/mg protein.

[2] = target: T2, OleD G340W (Streptomyces antibioticus, UniProt Q53685, G340W/P55A/R82V/R83E/T84P); assay: as above; settings: UDP-Glc donor
T2 construct: made in house; host or cells: E. coli (site-directed mutant of pET28/OleD)
Experimental: as §1

[3] = target: T3, OleD S132F (Streptomyces antibioticus, UniProt Q53685, P55A/R82V/R83E/S132F/T84P); assay: as above; settings: UDP-Glc donor
T3 construct: made in house; host or cells: E. coli (site-directed mutant of pET28/OleD)
Experimental: as §1

[4] = target: T4, OleD A242V (Streptomyces antibioticus, UniProt Q53685, A242V/P55A/R82V/R83E/T84P); assay: as above; settings: UDP-Glc donor
T4 construct: made in house; host or cells: E. coli BL21(DE3)pLysS (error-prone PCR clone in pET28a)
Experimental: as §1

[5] = target: T5, OleD I112T (Streptomyces antibioticus, UniProt Q53685, I112T/P55A/R82V/R83E/T84P); assay: as above; settings: UDP-Glc donor
T5 construct: made in house; host or cells: E. coli (site-directed mutant of pET28/OleD)
Experimental: as §1

[6] = target: T6, WT OleD (Streptomyces antibioticus, UniProt Q53685, P55A/R82V/R83E/T84P); assay: Fluorescence-based glycosyltransferase assay in E. coli crude cell extracts
T6 construct: made in house; host or cells: E. coli BL21(DE3)pLysS, plasmid pET28/OleD
Experimental: Individual colonies were used to inoculate wells of a 96-deep well microtitre plate wherein each well contained 1 ml of LB medium supplemented with 50 μg/ml kanamycin. Culture plates were tightly sealed with AeraSeal™ breathable film (Research Products International Corp.). After cell growth at 37° C. for 18 h with shaking at 350 rpm, 100 μl of each culture was transferred to a fresh deep-well plate containing 1 ml of LB medium supplemented with 50 μg/ml kanamycin. The original plate was sealed and stored at 4° C., or a glycerol copy made by mixing 100 μl of each culture with 100 µl 50% (v/v) glycerol and storing at −80° C. The freshly inoculated plate was incubated at 37° C. for 2-3 h with shaking at 350 rpm. […]
For the assay, cleared supernatant was mixed with an equal volume (501) of 50 mM Tris-HCl (pH 8.0) containing 10 mM MgCl2, 0.2 mM 4-Me-umb (FIG. 1: 4), and 1.0 mM UPDG (FIG. 3: 2) using a Biomek FX Liquid Handling Workstation (Beckman Coulter, Fullerton, Calif.). Upon mixing, the fluorescence at excitation 350 nm and emission 460 nm was measured using a FLUOstar Optima plate reader (BMG Labtechnologies, Durham, N.C.) and the reactions incubated for 4 h at 30° C., at which time the fluorescence measurement was repeated. Activity of the clones was expressed as the difference in fluorescence intensity between 0 h and 3 h.

[7] = target: OleD P67T/I112K/A242V (Streptomyces antibioticus, UniProt Q53685, A242V/I112K/P67T); assay: Specific activity with novobiocic acid as acceptor and UDP-Glc; settings: UDP-Glc donor
Experimental: as §1

[8] = target: T7, OleD P67T/S132F/A242V (Streptomyces antibioticus, UniProt Q53685, A242V/P67T/S132F); assay: as above; settings: UDP-Glc donor
T7 construct: made in house; host or cells: E. coli (site-directed mutant of pET28/OleD)
Experimental: as §1

[9] = target: T6, WT OleD; settings: named substrate varied, other substrate fixed at 5 mM
Experimental: Determination of kinetic parameters. Enzyme assays were carried out in a total volume of 100 μl 50 mM Tris-HCl (pH 8.0) containing 5 mM MgCl2, and typically 10-50 μg pure enzyme. Kinetic parameters kcat and Km were determined with both (FIG. 9: 1) and (FIG. 12: 5) as variable substrates. […] Each experiment was performed in triplicate. Aliquots ([…]) were removed between 0 and 30 min, at which time product formation was still linear with respect to time, and quenched with 100 μl of ice-cold MeOH, and centrifuged at 10,000 g for 10 min. Supernatants were analyzed by analytical reverse-phase HPLC as described above. The substrate (FIG. 9: 1) and the glucoside product (FIG. 9: 7) HPLC peak areas were integrated, and the product concentration calculated as a percent of the total peak area. Initial velocities were fitted to the Michaelis-Menten equation using Sigma Plot.

Structure (SMILES) | improvement in specific activity, P67T compared to WT OleD [1] | specific activity, G340W compared to WT OleD [2] | improvement in specific activity, S132F compared to WT OleD [3] | improvement in specific activity, A242V compared to WT OleD [4] | specific activity, I112T compared to WT OleD [5] | activity in E. coli pET28/OleD crude cell extracts versus extracts not over-expressing OleD [6] [fold] | improvement in specific activity, P67T/I112K/A242V over P67T/S132F/A242V [7] | improvement, P67T/I112K/A242V over the parent P67T/I112T/A242V ([7]; purified enzymes) | improvement in glucosylation activity, P67T/S132F/A242V compared to WT OleD [8] | Km [9] [µM] | kcat [9] [s⁻¹]
Cc1cc(=O)oc2cc(O)ccc12 [4-Me-umb (4), 7-hydroxy-4-methylcoumarin] | approximately 7 fold | approximately 0.5 fold | ~2.6 fold | ~2.3 fold | approximately 0.5 fold | ~2 | – | – | – | – | –
CC(C)=CCc1cc(C(=O)Nc2c(O)c3ccc(O)c(C)c3oc2=O)ccc1O [novobiocic acid (29), novobiocic acid] | two-three fold | non-beneficial | two-three fold | two-three fold | 7.4 fold | – | twenty-eight | seven | five-fold | 2000 | 0.000683

Reference: patent publication US8093028B2, “Engineered glycosyltransferases with expanded substrate specificity” (Wisconsin Alumni Research Foundation, priority 2007, dated 2012)
